The supplement of paper PMC7021759
± gives the standard deviation of the averaged measurements.

Tested on: SK-N-MM (SKNMM-MYCN, doxycycline-inducible MYCN)
Assay: area under dose-response curve (CellTiter-Glo viability normalised to plate controls) (AUC (arbitrary units)); higher = more loss of viability; extreme values may be limits of the assay
Summary of the method: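 SK-N-MM cells with doxycycline-inducible MYCN were plated at 1250 cells/100 μL in 96-well plates and given medium with or without doxycycline about 24 h later. Two days later, 10-point 1:3 compound dilution series were pin-transferred (890-fold stock dilution) and re-dosed on day 4. CellTiter-Glo luminescence was read 3 or 8 days after drugging. Log2 signals were normalised to plate positive and negative controls, and area under the dose-response curve was computed.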

[1] = MYCN induction (doxycycline): +doxycycline (MYCN induced), time after drugging: 3 days
[2] = MYCN induction (doxycycline): +doxycycline (MYCN induced), time after drugging: 8 days
[3] = MYCN induction (doxycycline): no doxycycline (MYCN not induced), time after drugging: 3 days
[4] = MYCN induction (doxycycline): no doxycycline (MYCN not induced), time after drugging: 8 days

SMILES | area under dose-response curve [1] | area under dose-response curve [2] | area under dose-response curve [3] | area under dose-response curve [4]
CC(=O)O[C@H]1CC[C@@]2(C)C(=CC[C@@H]3[C@@H]2CC[C@]2(C)C(c4cccnc4)=CC[C@@H]32)C1 [ABIRATERONE ACETATE] | 8.14 | 0 | 6.74 | 0.368
CC(C)c1cc(-c2n[nH]c(=O)n2-c2ccc3c(ccn3C)c2)c(O)cc1O [GANETESPIB] | 169 | 378 | 202 | 398
CC12CC3CC(C)(C1)CC(N)(C3)C2 [MEMANTINE] | 0 | 0 | 0 | 0
Cn1cnc2c(F)c(Nc3ccc(Br)cc3Cl)c(C(=O)NOCCO)cc21 [SELUMETINIB] | 0 | 0 | 0.45 | 18.9
COC(=O)[C@]12CCC(C)(C)C[C@H]1[C@H]1C(=O)C=C3[C@@]4(C)C=C(C#N)C(=O)C(C)(C)[C@@H]4CC[C@@]3(C)[C@]1(C)CC2 [BARDOXOLONE METHYL] | 212 | 243 | 216 | 226
CO[C@H]1C[C@@H]2CC[C@@H](C)[C@@](O)(O2)C(=O)C(=O)N2CCCC[C@H]2C(=O)O[C@H]([C@H](C)C[C@@H]2CC[C@@H](OC(=O)C(C)(CO)CO)[C@H](OC)C2)CC(=O)[C@H](C)/C=C(\C)[C@@H](O)[C@@H](OC)C(=O)[C@H](C)C[C@H](C)/C=C/C=C/C=C/1C [TEMSIROLIMUS] | 8.87 ± 0.32 |  |  | 43.4
O=P1(N(CCCl)CCCl)NCCCO1 (stereo not given) [CYCLOPHOSPHAMIDE] | 0 | 0 | 0 | 
O=C(NOC[C@H](O)CO)c1ccc(F)c(F)c1Nc1ccc(I)cc1F | 28.9 | 92.1 | 21.5 | 84.4
CCc1nc(N)nc(N)c1-c1ccc(Cl)cc1 [PYRIMETHAMINE] | 13.5 | 65.7 | 5.97 | 22.1
CN[C@@H]1C[C@H]2O[C@@](C)([C@@H]1OC)n1c3ccccc3c3c4c(c5c6ccccc6n2c5c31)C(=O)N[C@H]4O [7-HYDROXYSTAUROSPORINE] | 204 | 290 | 144 | 249
CCN1CCN(Cc2ccc(Nc3ncc(F)c(-c4cc(F)c5nc(C)n(C(C)C)c5c4)n3)nc2)CC1 [ABEMACICLIB] |  |  |  | 14.4
C/C=C1\NC(=O)[C@H]2CSSCC/C=C/[C@H](CC(=O)N[C@H](C(C)C)C(=O)N2)OC(=O)[C@H](C(C)C)NC1=O [ROMIDEPSIN] | 231 | 416 | 165 | 398
Cn1c(=O)n(-c2ccc(C(C)(C)C#N)cc2)c2c3cc(-c4cnc5ccccc5c4)ccc3ncc21 [DACTOLISIB] | 73.9 | 132 | 62.3 | 96.3
Nc1nc(=O)n([C@H]2C[C@H](O)[C@@H](CO)O2)cc1F [5-FLUORODEOXYCYTIDINE] | 23.7 | 184 | 9.38 | 58.5
C#Cc1cccc(Nc2ncnc3cc(OCCOC)c(OCCOC)cc23)c1 [ERLOTINIB] |  | 1.15 | 18.8 | 
CCN(CC)CCCC(C)Nc1c2ccc(Cl)cc2nc2ccc(OC)cc12 (stereo not given) [QUINACRINE] | 2.07 | 146 | 0 | 149
C=C1[C@@H](O)[C@@H]2O[C@]3(CC[C@H](/C=C/[C@@H](C)[C@@H]4CC(C)=C[C@@]5(O[C@H](C[C@@](C)(O)C(=O)O)CC[C@H]5O)O4)O3)CC[C@H]2O[C@@H]1[C@@H](O)C[C@H](C)[C@H]1O[C@@]2(CCCCO2)CC[C@H]1C [OKADAIC ACID] | 204 | 277 | 167 | 266
CCOc1ccn(-c2ccc(F)cc2)c(=O)c1C(=O)Nc1ccc(Oc2ccnc(N)c2Cl)c(F)c1 | 0 | 0 | 4.76 | 74.3
CN(C)CCCNc1c2ccccc2nc2c1[nH]c1ccccc12 [SYUIQ-5] | 219 | 262 | 196 | 225
O=C(O)CCCc1ccc(N(CCCl)CCCl)cc1 [CHLORAMBUCIL] | 0.922 | 0 | 0.476 | 2.34
CC(C)C[C@H](NC(=O)[C@H](CCc1ccccc1)NC(=O)CN1CCOCC1)C(=O)N[C@@H](Cc1ccccc1)C(=O)N[C@@H](CC(C)C)C(=O)[C@@]1(C)CO1 [CARFILZOMIB] | 295 | 404 | 286 | 398
CC[C@@]1(O)C(=O)OCc2c1cc1n(c2=O)Cc2cc3c(CN(C)C)c(O)ccc3nc2-1 [TOPOTECAN] | 139 | 216 | 68.5 | 105
CO[C@H]1C[C@@H]2CC[C@@H](C)[C@@](O)(O2)C(=O)C(=O)N2CCCC[C@H]2C(=O)O[C@H]([C@H](C)C[C@@H]2CC[C@@H](OCCO)[C@H](OC)C2)CC(=O)[C@H](C)/C=C(\C)[C@@H](O)[C@@H](OC)C(=O)[C@H](C)C[C@H](C)/C=C/C=C/C=C/1C [EVEROLIMUS] | 19.6 | 0 | 37.3 | 21.4
Clc1ccc(NN=C(c2ccccc2)c2ccccn2)nc1 [JIB-04] | 33.4 | 152 | 17.8 | 37.1
Cc1ncc(CNC(=O)N(CCCl)N=O)c(N)n1 [NIMUSTINE] | 0 | 0 | 0 | 0
Nc1ncn([C@H]2C[C@H](O)[C@@H](CO)O2)c(=O)n1 [DECITABINE] | 4.2 | 169 | 0.521 | 67.4
C=C1C[C@@H]2CC[C@@]34C[C@H]5O[C@H]6[C@@H](O3)[C@H]3O[C@H](CC[C@@H]3O[C@H]6[C@H]5O4)CC(=O)C[C@@H]3[C@@H](OC)[C@@H](C[C@H](O)CN)O[C@H]3C[C@H]3O[C@@H](CC[C@@H]1O2)C[C@@H](C)C3=C [ERIBULIN] | 0 | 0.398 | 0 | 52.7
Nc1cc(C(F)(F)F)c(-c2cc(N3CCOCC3)nc(N3CCOCC3)n2)cn1 [BUPARLISIB] | 91.8 | 150 | 65.7 | 86.9
CCC(=O)OCN1C(=O)C=CC1=O [MIRA-1] |  |  |  | 39
